Measurements reported in patent US6994970B1, “Peptides for combating the autoantibodies that are responsible for dilatative cardiomyopathy (DCM)” (Fresenius Medical Care Affina GmbH, priority 1999, dated 2006).

Tested on: auto-antibodies bound to the affinity chromatographic column
Experiment: Eluted auto-antibodies tested for preferential binding to peptide 1 or peptide 2 bound to a solid phase
Design: species or system human
Method: After elution from the affinity matrix, the auto-antibodies bound to the affinity chromatographic column were tested for preferential binding to peptide 1 or peptide 2 by means of peptide 1 and peptide 2 bound to a solid phase. Auto-antibody type 1 prefers the binding of peptide 1, and auto-antibody type 2 prefers the binding of peptide 2.

Row | Sequence | preferential binding of auto-antibodies to peptide 1 or peptide 2 (auto-antibodies of person 2, peptides bound to a solid phase) | preferential binding of auto-antibodies to peptide 1 or peptide 2 (auto-antibodies of person 1, peptides bound to a solid phase)
1 | HWWRAESDEARRSYNDPKC [Peptide 2] | preferably bind | 
2 | TGSFFCELWTSGKK [Peptide 1] |  | preferably bind
